Test results taken from patent US20090024021A1, “Methods and Systems for Using Transcranial Magnetic Stimulation and Functional Brain Mapping for Examining Cortical Sensitivity, Brain Communication, and Effects of Medication” (priority 2002, published 2009).
“And” between values parts separate entries of the source, which are not always exact repeats. Identical values can stand only once.

Columns and labels:
[1] = single oral dose of 325 mg of LTG; transiently (for 3 hours); cited from earlier work
[2] = system: motor corticospinal pathways; conditions: volunteers or patients with complex partial seizures; cited from earlier work
[3] = system: left primary motor cortex; assay: Resting motor threshold (RMT) by TMS with EMG of abductor pollicis brevis; format: in vivo, human
Description: Study design: We performed a randomized, double-blind, crossover trial involving two visits at least one week apart (FIG. 8). […] Serum LTG levels, RMTs, and interleaved TMS/phMRI images during both motor and then prefrontal TMS were then gathered for each subject. One week later they received LTG or placebo again, followed by identical RMT and interleaved TMS/phMRI studies.
General Procedure: After arriving at the laboratory in the early afternoon, baseline RMT was determined and baseline plasma levels of LTG were drawn. They were then given a single oral dose of 325 mg LTG or placebo. They then waited quietly for 3 hours. Three hours after taking the oral pill, RMT was determined and serum plasma levels were again drawn.
TMS: Focal TMS was delivered by a MAGSTIM Super Rapid stimulator (Magstim Co, Whitland, Dyfed, U.K) and applied through a focal figure-of-eight magnetic coil (each wing 70 mm in diameter). The optimal position of the magnetic coil for eliciting a MEP in the right abductor pollicis brevis (APB) was determined by holding the coil tangential to the scalp, and moving it in small steps over the presumed area of the left primary motor cortex at a slightly suprathreshold stimulus intensity. The coil was always held horizontally with the handle pointing backward and laterally at 45 degrees from the midline. This position was marked with a pen on a reusable latex swimming cap in order to assure constant placement of the coil throughout the visits. Stimulus intensity and threshold values were expressed as percent of the maximal stimulator output.
Resting Motor Threshold (RMT): Surface electromyographic (EMG) was recorded from the APB using 9-mm Ag—AgCl electrodes in a belly-tendon montage. The placement of electrodes on the thumb and hand was marked with a pen for exact re-placement in consecutive visits on the same day. The raw EMG signal was amplified by a factor of 100 gain and band-pass filtered, […] with a High Performance Band pass Filter Model V-7548 (LAB Linc. Co). The EMG was recorded on a G3 Macintosh with MacCRO (version 2.1).
RMT was determined in the resting APB in 4 steps: In step one and step three, thresholds were approached from a slightly suprathreshold intensity by reducing the stimulus intensity in 1% steps with a 5 sec interval between pulses, whereas in steps two and four, thresholds were approached from a slightly subthreshold intensity by increasing the stimulus intensity. RMT was defined as the first intensity that produced a MEP of greater than 50 μV in 3 out of 6 trials in the resting target muscle. A mean RMT for baseline or after medication was calculated by averaging the four values. Determination of the RMT using this technique usually lasted 30 minutes.
The percent change of RMT=100[(post-dose RMT−pre-dose RMT)/pre-dose RMT]. Paired Student's t tests (two tailed) were performed for the percent change of RMT between LTG and placebo. Wilcoxon nonparametric tests were performed for the number of active voxels in the region of interests (ROI) between LTG and placebo. We performed Pearson correlations between the percent change of RMT and the change of active voxel number. Two-way analysis of variance (ANOVA) was performed for % BOLD signal change in the different intensity stimulation and the different medication conditions. All statistical analyses were performed using SPSS 10.0 (Statistical Product and Service Solutions Inc, Chicago Ill.).

Nc1nnc(-c2cccc(Cl)c2Cl)c(N)n1 [LTG, Lamotrigine]
serum concentrations after single oral dose [1]: equal to steady state levels at clinically relevant chronic doses
resting motor threshold (RMT) [2]: significantly increased
RMT Post-3 hours ([3]; LTG visit, 3 hours after single oral dose of 325 mg LTG, individual subjects 1-12): 75.25% of machine maximum output (Magstim) and 66.25% of machine maximum output (Magstim) and 66.50% of machine maximum output (Magstim) and 99.00% of machine maximum output (Magstim) and 55.25% of machine maximum output (Magstim) and 100.00% of machine maximum output (Magstim) (2×) and 101.00% of machine maximum output (Magstim) (2×) and 64.50% of machine maximum output (Magstim) and 68.25% of machine maximum output (Magstim) and 95.25% of machine maximum output (Magstim)
RMT Post-3 hours, mean ([3]; LTG visit, 3 hours after single oral dose of 325 mg LTG, mean of 12 subjects): 82.69% of machine maximum output (Magstim)
RMT % Change from baseline ([3]; LTG visit, post-dose 3 hours vs pre-dose same day, individual subjects 1-12): 8.27% and 28.02% and 7.26% and 30.26% and 1.38% and 3.63% and 26.10% and 19.53% and 8.86% and 15.76% and 12.81% and 16.87%
RMT % Change from baseline, mean ([3]; LTG visit, post-dose 3 hours vs same day baseline, mean of 12 subjects, placebo 0.6%): 14.9%
TMS resting motor threshold compared with placebo ([3]; all 12 subjects, day subjects received LTG): significant increase
